biological target: T1, C-terminal GST-tagged, recombinant, human IGF-1R, amino acids 954-1367 (Homo sapiens, UniProt P08069); assay: IGF-1R homogenous time-resolved fluorescence (HTRF) in vitro kinase assay; format: biochemical; settings: IGF-1R kinase, ATP 50 μM final, biotinylated peptide substrate 0.5 μM, 60 minutes at room temperature
T1 construct: human IGF-1R, amino acids 954-1367 expressed by baculovirus in Sf21 cells; GST (C); purchased Cell Signaling Technology; host or cells: baculovirus in Sf21 cells
T1 sequence (P08069 954-1367): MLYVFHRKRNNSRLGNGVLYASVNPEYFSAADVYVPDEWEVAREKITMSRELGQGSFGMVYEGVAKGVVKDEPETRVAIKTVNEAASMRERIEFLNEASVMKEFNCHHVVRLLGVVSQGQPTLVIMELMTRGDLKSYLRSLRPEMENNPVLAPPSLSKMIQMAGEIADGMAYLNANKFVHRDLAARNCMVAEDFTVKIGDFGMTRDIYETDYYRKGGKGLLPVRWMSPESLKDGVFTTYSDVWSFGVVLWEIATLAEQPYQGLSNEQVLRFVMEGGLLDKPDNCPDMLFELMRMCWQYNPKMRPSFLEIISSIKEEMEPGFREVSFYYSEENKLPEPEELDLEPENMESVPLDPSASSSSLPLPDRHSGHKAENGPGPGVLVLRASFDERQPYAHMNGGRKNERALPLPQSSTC
Method: IGF-1R kinase activity was assayed by a homogenous time-resolved fluorescence (HTRF) in vitro kinase assay (Mathis, G., HTRF(R) Technology. J Biomol Screen, 1999. 4(6): p. 309-314). Specifically, 10 μL C-terminal GST-tagged, recombinant, human IGF-1R, amino acids 954-1367 expressed by baculovirus in Sf21 cells (Cell Signaling Technology) was mixed with 10 μL inhibitor (various concentrations, 2% final DMSO) and 10 μL of ATP (50 μM final concentration) in reaction buffer (50 mM HEPES, pH 7.5, 10 mM MgCl2, 2 mM MnCl2, 0.1% BSA and 1 mM DTT, 40 μL final volume). The reaction was initiated by addition of 10 μL of biotinylated peptide substrate (Biotin-Ahx-[…], 0.5 μM final concentration) in a black 384-well plate (Packard). After 60 minutes incubation at room temperature, the reaction was quenched by addition of 60 μL stop/revelation buffer to give 30 mM EDTA, 1 μg/mL streptavidin-APC (Prozyme), 50 ng/mL anti-phosphotyrosine mAb PT66-K Europium Cryptate, 30 mM HEPES, pH 7.5, 120 mM KF, 0.005% Tween-20, 0.05% BSA). The quenched reaction was allowed to stand at room temperature for 1 hour and then read in a time-resolved fluorescence detector (Envision, Perkin Elmer) at 615 nm and 665 nm simultaneously. The ratio between the signal of 615 nm and 665 nm was used in the calculation of the IC50.

SMILES	IC50 [nM]
O=C1CCCN1c1cccc(Nc2nccc(-c3c(-c4ccc5[nH]c(Cc6ccccc6)nc5c4)nc4ccccn34)n2)c1 [Example 1, 1-[3-({4-[2-(2-benzyl-1H-benzimidazol-5-yl)imidazo[1,2-a]pyridin-3-yl]pyrimidin-2-yl}amino)phenyl]pyrrolidin-2-one]	10 to 50
CN(C)CCc1cccc(Nc2nccc(-c3c(-c4ccc5nc(Cc6ccccc6)[nH]c5c4)nc4ccccn34)n2)c1 [Example 2, 4-[2-(2-benzyl-1H-benzimidazol-6-yl)imidazo[1,2-a]pyridin-3-yl]-N-{3-[2-(dimethylamino)ethyl]phenyl}pyrimidin-2-amine]	< 10
COc1ccccc1Cc1nc2cc(-c3nc4ccccn4c3-c3ccnc(Nc4cccc(CCN(C)C)c4)n3)ccc2[nH]1 [Example 3, N-{3-[2-(dimethylamino)ethyl]phenyl}-4-{2-[2-(2-methoxybenzyl)-1H-benzimidazol-5-yl]imidazo[1,2-a]pyridin-3-yl}pyrimidin-2-amine]	< 10
c1ccc(Cc2nc3cc(-c4nc5ccccn5c4-c4ccnc(Nc5ccccc5)n4)ccc3[nH]2)cc1 [Example 4, 4-[2-(2-benzyl-1H-benzimidazol-5-yl)imidazo[1,2-a]pyridin-3-yl]-N-phenylpyrimidin-2-amine]	10 to 50
CN(C)CCc1cccc(Nc2nccc(-c3c(-c4ccc5[nH]c(Cc6ccccc6Cl)nc5c4)nc4ccccn34)n2)c1 [Example 5, 4-{2-[2-(2-chlorobenzyl)-1H-benzimidazol-5-yl]imidazo[1,2-a]pyridin-3-yl}-N-{3-[2-(dimethylamino)ethyl]phenyl}pyrimidin-2-amine]	< 10
CN(C)CCc1cccc(Nc2nccc(-c3c(-c4ccc5[nH]c(Cc6ccccc6C(F)(F)F)nc5c4)nc4ccccn34)n2)c1 [Example 6, N-{3-[2-(dimethylamino)ethyl]phenyl}-4-(2-{2-[2-(trifluoromethyl)benzyl]-1H-benzimidazol-5-yl}imidazo[1,2-a]pyridin-3-yl)pyrimidin-2-amine]	< 10
CN(C)CCc1cccc(Nc2nccc(-c3c(-c4ccc5nc(Cc6ccccc6)[nH]c5c4)nc4sccn34)n2)c1 [Example 7, 4-[6-(2-benzyl-1H-benzimidazol-6-yl)imidazo[2,1-b][1,3]thiazol-5-yl]-N-{3-[2-(dimethylamino)ethyl]phenyl}pyrimidin-2-amine]	< 10
COc1ccccc1Cc1nc2ccc(-c3nc4sccn4c3-c3ccnc(Nc4cccc(CCN(C)C)c4)n3)cc2[nH]1 [Example 8, N-{3-[2-(dimethylamino)ethyl]phenyl}-4-{6-[2-(2-methoxybenzyl)-1H-benzimidazol-6-yl]imidazo[2,1-b][1,3]thiazol-5-yl}pyrimidin-2-amine]	< 10
CN(C)CCc1cccc(Nc2nccc(-c3c(-c4ccc5nc(Cc6ccccc6Cl)[nH]c5c4)nc4sccn34)n2)c1 [Example 9, 4-{6-[2-(2-chlorobenzyl)-1H-benzimidazol-6-yl]imidazo[2,1-b][1,3]thiazol-5-yl}-N-{3-[2-(dimethylamino)ethyl]phenyl}pyrimidin-2-amine]	< 10
CN(C)CCc1cccc(Nc2nccc(-c3c(-c4ccc5nc(CCc6ccccc6)[nH]c5c4)nc4ccccn34)n2)c1 [Example 10, N-{3-[2-(dimethylamino)ethyl]phenyl}-4-{2-[2-(2-phenylethyl)-1H-benzimidazol-6-yl]imidazo[1,2-a]pyridin-3-yl}pyrimidin-2-amine]	10 to 50
c1ccc(Nc2nccc(-c3c(-c4ccc5nc(-c6ccccc6)[nH]c5c4)nc4ccccn34)n2)cc1 [Example 11, N-phenyl-4-[2-(2-phenyl-1H-benzimidazol-6-yl)imidazo[1,2-a]pyridin-3-yl]pyrimidin-2-amine]	101 to 500
CN(C)CCc1cccc(Nc2nccc(-c3c(-c4ccc5nc(Nc6ccccc6)[nH]c5c4)nc4ccccn34)n2)c1 [Example 12, 6-{3-[2-({3-[2-(dimethylamino)ethyl]phenyl}amino)pyrimidin-4-yl]imidazo[1,2-a]pyridin-2-yl}-N-phenyl-1H-benzimidazol-2-amine]	< 10
CN(C)CCc1cccc(Nc2nccc(-c3c(-c4ccc5nc(-c6ccccc6)[nH]c5c4)nc4ccccn34)n2)c1 [Example 13, N-{3-[2-(dimethylamino)ethyl]phenyl}-4-[2-(2-phenyl-1H-benzimidazol-6-yl)imidazo[1,2-a]pyridin-3-yl]pyrimidin-2-amine]	10 to 50
COc1cc(N2CCOCC2)ccc1Nc1nccc(-c2c(-c3ccc4nc(Cc5ccccc5)[nH]c4c3)nc3ccccn23)n1 [Example 14, 4-[2-(2-benzyl-1H-benzimidazol-6-yl)imidazo[1,2-a]pyridin-3-yl]-N-(2-methoxy-4-morpholin-4-ylphenyl)pyrimidin-2-amine]	< 10
COc1ccccc1Nc1nccc(-c2c(-c3ccc4nc(Cc5ccccc5)[nH]c4c3)nc3ccccn23)n1 [Example 15, 4-[2-(2-benzyl-1H-benzimidazol-6-yl)imidazo[1,2-a]pyridin-3-yl]-N-(2-methoxyphenyl)pyrimidin-2-amine]	51 to 100
CS(=O)(=O)c1cccc(Nc2nccc(-c3c(-c4ccc5nc(Cc6ccccc6)[nH]c5c4)nc4ccccn34)n2)c1 [Example 16, 4-[2-(2-benzyl-1H-benzimidazol-6-yl)imidazo[1,2-a]pyridin-3-yl]-N-[3-(methylsulfonyl)phenyl]pyrimidin-2-amine]	51 to 100
CN(C)S(=O)(=O)c1cccc(Nc2nccc(-c3c(-c4ccc5nc(Cc6ccccc6)[nH]c5c4)nc4ccccn34)n2)c1 [Example 17, 3-({4-[2-(2-benzyl-1H-benzimidazol-6-yl)imidazo[1,2-a]pyridin-3-yl]pyrimidin-2-yl}amino)-N,N-dimethylbenzenesulfonamide]	101 to 500
CS(=O)(=O)c1ccc(Nc2nccc(-c3c(-c4ccc5nc(Cc6ccccc6)[nH]c5c4)nc4ccccn34)n2)cc1 [Example 18, 4-[2-(2-benzyl-1H-benzimidazol-6-yl)imidazo[1,2-a]pyridin-3-yl]-N-[4-(methylsulfonyl)phenyl]pyrimidin-2-amine]	51 to 100
c1ccc(Nc2nccc(-c3c(-c4ccc5nc(Nc6ccccc6)[nH]c5c4)nc4ccccn34)n2)cc1 [Example 19, 6-[3-(2-anilinopyrimidin-4-yl)imidazo[1,2-a]pyridin-2-yl]-N-phenyl-1H-benzimidazol-2-amine]	> 500
COc1ccccc1Cc1nc2ccc(-c3nc4ccccn4c3-c3ccnc(Nc4ccc(N5CCOCC5)cc4OC)n3)cc2[nH]1 [Example 20, 4-{2-[2-(2-methoxybenzyl)-1H-benzimidazol-6-yl]imidazo[1,2-a]pyridin-3-yl}-N-(2-methoxy-4-morpholin-4-ylphenyl)pyrimidin-2-amine]	51 to 100
COc1cc(N2CCOCC2)ccc1Nc1nccc(-c2c(-c3ccc4nc(Cc5c(F)cccc5F)[nH]c4c3)nc3ccccn23)n1 [Example 21, 4-{2-[2-(2,6-difluorobenzyl)-1H-benzimidazol-6-yl]imidazo[1,2-a]pyridin-3-yl}-N-(2-methoxy-4-morpholin-4-ylphenyl)pyrimidin-2-amine]	10 to 50
COc1cc(N2CCC(N3CCN(C)CC3)CC2)ccc1Nc1nccc(-c2c(-c3ccc4[nH]c(Cc5ccccc5)nc4c3)nc3ccccn23)n1 [Example 22, 4-[2-(2-benzyl-1H-benzimidazol-5-yl)imidazo[1,2-a]pyridin-3-yl]-N-{2-methoxy-4-[4-(4-methylpiperazin-1-yl)piperidin-1-yl]phenyl}pyrimidin-2-amine]	< 10
c1ccc(Cc2nc3ccc(-c4nc5sccn5c4-c4ccnc(Nc5ccccc5)n4)cc3[nH]2)cc1 [Example 23, 4-[6-(2-benzyl-1H-benzimidazol-6-yl)imidazo[2,1-b][1,3]thiazol-5-yl]-N-phenylpyrimidin-2-amine]	51 to 100
COc1ccccc1Nc1nccc(-c2c(-c3ccc4nc(Cc5ccccc5)[nH]c4c3)nc3sccn23)n1 [Example 24, 4-[6-(2-benzyl-1H-benzimidazol-6-yl)imidazo[2,1-b][1,3]thiazol-5-yl]-N-(2-methoxyphenyl)pyrimidin-2-amine]	10 to 50
Cc1cc(Nc2nccc(-c3c(-c4ccc5nc(Cc6ccccc6)[nH]c5c4)nc4ccccn34)n2)n[nH]1 [Example 25, 4-[2-(2-benzyl-1H-benzimidazol-6-yl)imidazo[1,2-a]pyridin-3-yl]-N-(5-methyl-1H-pyrazol-3-yl)pyrimidin-2-amine]	51 to 100
c1ccc(Cc2nc3ccc(-c4nc5ccccn5c4-c4ccnc(Nc5cc(C6CC6)n[nH]5)n4)cc3[nH]2)cc1 [Example 26, 4-[2-(2-benzyl-1H-benzimidazol-6-yl)imidazo[1,2-a]pyridin-3-yl]-N-(3-cyclopropyl-1H-pyrazol-5-yl)pyrimidin-2-amine]	10 to 50
COc1cc(N2CCOCC2)ccc1Nc1nccc(-c2c(-c3ccc4nc(-c5ccccc5)[nH]c4c3)nc3ccccn23)n1 [Example 27, N-(2-methoxy-4-morpholin-4-ylphenyl)-4-[2-(2-phenyl-1H-benzimidazol-6-yl)imidazo[1,2-a]pyridin-3-yl]pyrimidin-2-amine]	10 to 50
